Data from patent US7408063B2, “1,8-annelated quinoline derivatives substituted with carbon-linked triazoles as farnesyl transferase inhibitors” (Janssen Pharmaceutica, N.V., priority 2001, dated 2008).

What was measured:
[1] = molecular target: farnesyl protein transferase (Homo sapiens, UniProt P49354+P49356); assay: In vitro assay for inhibition of farnesyl protein transferase; format: biochemical; conditions: negative log value of the IC50-value; IC50 = concentration needed to reduce the product of the enzymatic reaction to 50% of the control; read-out: Enzyme activity pIC50 (converted)
Method: An in vitro assay for inhibition of farnesyl transferase was performed essentially as described in WO 98/40383, pages 33-34. When appropriate, IC50-values (concentration of the drug, needed to reduce the product of the enzymatic reaction, to 50% of the conrol) were computed using probit analysis for graded data (Finney, D. J., Probit Analuses, 2nd Ed. Chapter 10, Graded Responses, Cambridge Univerity Press, Cambridge 1962). Herein (see table F-3) the effects of test compounds are expressed as pIC50 (the negative log value of the IC50-value). Also the intermediate compounds described in the table F-1 show activity in the in vitro assay for inhibition of farnesyl protein transferase.

| Structure (SMILES) | melting point | IC50 [1] |
| --- | --- | --- |
| Cn1cnnc1C(c1ccc(I)cc1)c1cc2c3c(c1)c(-c1cccc(Cl)c1)cc(=O)n3CC2 (stereo not shown) (hydrate or solvate) [Compound 1, 6-(3-chlorophenyl)-1,2-dihydro-8-[(4-iodophenyl)(4-methyl-4H-1,2,4-triazol-3-yl)methyl]-4H-pyrrolo[3,2,1-ij]quinolin-4-one] | 194 °C | – |
| Cn1cnnc1C(c1ccc(I)cc1)c1cc2c3c(c1)c(-c1cccc(Cl)c1)cc(=O)n3CC2 (stereo not shown) [Compound 1, 6-(3-chlorophenyl)-1,2-dihydro-8-[(4-iodophenyl)(4-methyl-4H-1,2,4-triazol-3-yl)methyl]-4H-pyrrolo[3,2,1-ij]quinolin-4-one] | – | 21.4 nM |
| Cn1cnnc1C(c1ccc(C#N)cc1)c1cc2c3c(c1)c(-c1cccc(Cl)c1)cc(=O)n3CC2 (stereo not shown) [Compound 2, 4-[[6-(3-chlorophenyl)-1,2-dihydro-4-oxo-4H-pyrrolo[3,2,1-ij]quinolin-8-yl](4-methyl-4H-1,2,4-triazol-3-yl)methyl]-benzonitrile] | 174 °C | 2.02 nM |
| Cn1cnnc1C(O)(c1ccc(Cl)cc1)c1cc2c3c(c1)c(-c1cccc(Cl)c1)cc(=O)n3CCC2 (stereo not shown) [Compound 3, 7-(3-chlorophenyl)-9-[(4-chlorophenyl)hydroxy(4-methyl-4H-1,2,4-triazol-3-yl)methyl]-2,3-dihydro-1H,5H-benzo[ij]quinolizin-5-one] | 183 °C | 8.18 nM |
| Cn1cnnc1C(O)(c1ccc(F)cc1)c1cc2c3c(c1)c(-c1cccc(Cl)c1)cc(=O)n3CC2 (stereo not shown) [Compound 4, 6-(3-chlorophenyl)-8-[(4-fluorophenyl)hydroxy(4-methyl-4H-1,2,4-triazol-3-yl)methyl]-1,2-dihydro-4H-pyrrolo[3,2,1-ij]quinolin-4-one] | – | 5.77 nM |
| CC(=O)NC(c1ccc(F)cc1)(c1cc2c3c(c1)c(-c1cccc(Cl)c1)cc(=O)n3CC2)c1nncn1C (stereo not shown) [Compound 5, N-[[6-(3-chlorophenyl)-1,2-dihydro-4-oxo-4H-pyrrolo[3,2,1-ij]quinolin-8-yl](4-fluorophenyl)(4-methyl-4H-1,2,4-triazol-3-yl)methyl]-acetamide] | 196 °C | 3.4 nM |
| COC(c1ccc(Cl)cc1)(c1cc2c3c(c1)c(-c1cccc(Cl)c1)cc(=O)n3CCC2)c1nncn1C (stereo not shown) [Compound 6, 7-(3-chlorophenyl)-9-[(4-chlorophenyl)methoxy(4-methyl-4H-1,2,4-triazol-3-yl)methyl]-2,3-dihydro-1H,5H-benzo[ij]quinolizin-5-one] | 132 °C | < 100 nM |
| Cn1cnnc1C(OCCO)(c1ccc(F)cc1)c1cc2c3c(c1)c(-c1cccc(Cl)c1)cc(=O)n3CC2 (stereo not shown) [Compound 7, 6-(3-chlorophenyl)-8-[(4-fluorophenyl)(2-hydroxyethoxy)(4-methyl-4H-1,2,4-triazol-3-yl)methyl]-1,2-dihydro-4H-pyrrolo[3,2,1-ij]quinolin-4-one] | 138 °C | 3.95 nM |
| Cn1cnnc1C(c1ccc(F)cc1)(c1cc2c3c(c1)c(-c1cccc(Cl)c1)cc(=O)n3CC2)n1ccnc1 (stereo not shown) [Compound 8, 6-(3-chlorophenyl)-8-[(4-fluorophenyl)-1H-imidazol-1-yl(4-methyl-4H-1,2,4-triazol-3-yl)methyl]-1,2-dibydro-4H-pyrrolo[3,2,1-ij]quinolin-4-one] | – | 3.84 nM |
| Cn1cnnc1C(N)(c1ccc(F)cc1)c1cc2c3c(c1)c(-c1cccc(Cl)c1)cc(=O)n3CC2 (stereo not shown) [Compound 9, 8-[amino(4-fluorophenyl)(4-methyl-4H-1,2,4-triazol-3-yl)methyl]-6-(3-chlorophenyl)-1,2-dihydro-4H-pyrrolo[3,2,1-ij]quinolin-4-one] | – | 2.98 nM |
| COC(c1ccc(F)cc1)(c1cc2c3c(c1)c(-c1cccc(Cl)c1)cc(=O)n3CC2)c1nncn1C (stereo not shown) [Compound 10, 6-(3-chlorophenyl)-8-[(4-fluorophenyl)methoxy(4-methyl-4H-1,2,4-triazol-3-yl)methyl]-1,2-dihydro-4H-pyrrolo[3,2,1-ij]quinolin-4-one] | – | 29.3 nM |
| Cn1cnnc1C(O)(c1ccc(Cl)cc1)c1cc2c3c(c1)c(-c1ccc(Cl)cc1)cc(=O)n3CC2 (stereo not shown) [Compound 11] | – | < 100 nM |
| Cn1cnnc1C(O)(c1ccc(Cl)cc1)c1cc2c3c(c1)c(-c1cccc(Cl)c1)c(Br)c(=O)n3CC2 (stereo not shown) [Compound 12] | – | > 100 nM |
| Cn1cnnc1C(O)(c1ccc(Br)cc1)c1cc2c3c(c1)c(-c1cccc(Br)c1)cc(=O)n3CC2 (stereo not shown) [Compound 13] | – | 5.86 nM |
